As usually defined, the inhibition is the change of the read-out against control, counted positive when it falls. As usually defined, the MIC is the lowest concentration that inhibits growth of the organism.

≈ marks a conversion by molar mass, not a printed value.

Experiment [1] has as its system Mycobacterium tuberculosis. Briefly: Antimycobacterial activity against Mycobacterium tuberculosis H37Rv assessed as inhibition at 20 uM. The format is functional.
The test system of experiment [2] is Mycobacterium tuberculosis. Briefly: Antimycobacterial activity against Mycobacterium tuberculosis H37Rv assessed as complete inhibition of proliferation. The format is functional.

Consider `C=C[C@]1(C)C[C@@H](OC(=O)CN(Cc2ccc(Oc3ccccc3)cc2)C2CCCCC2)[C@]2(C)[C@H](C)CC[C@]3(CCC(=O)[C@H]32)[C@@H](C)[C@@H]1O`, for which the inhibition at 20 µM in experiment [1] is 88%.
Turning to `C=C[C@]1(C)C[C@@H](OC(=O)CN(N2CCCCC2)S(=O)(=O)c2ccc(N)cc2)[C@]2(C)[C@H](C)CC[C@]3(CCC(=O)[C@H]32)[C@@H](C)[C@@H]1O`, the inhibition at 20 µM in experiment [1] stood at 60%.
Regarding `C=C[C@]1(C)C[C@@H](OC(=O)CN(CC)Cc2ccc(N(CC)CC)cc2)[C@]2(C)[C@H](C)CC[C@]3(CCC(=O)[C@H]32)[C@@H](C)[C@@H]1O`, the MIC in experiment [2] was found to be 7.2 µM (≈ 4.08 µg/mL). The inhibition at 20 µM in experiment [1] amounted to 99%.
As for `C=C[C@]1(C)C[C@@H](OC(=O)CN(CC)Cc2ccc(Oc3ccccc3)cc2)[C@]2(C)[C@H](C)CC[C@]3(CCC(=O)[C@H]32)[C@@H](C)[C@@H]1O`, in experiment [1], the inhibition at 20 µM was determined as 100%.
Consider `C=C[C@]1(C)C[C@@H](OC(=O)CN(CC)Cc2cccc(C)c2)[C@]2(C)[C@H](C)CC[C@]3(CCC(=O)[C@H]32)[C@@H](C)[C@@H]1O`, for which the inhibition at 20 µM in experiment [1] stood at 16%.
Consider `C=C[C@]1(C)C[C@@H](OC(=O)CN(CC)Cc2ccccc2)[C@]2(C)[C@H](C)CC[C@]3(CCC(=O)[C@H]32)[C@@H](C)[C@@H]1O`, for which the inhibition at 20 µM in experiment [1] came out at 100%.
Take `C=C[C@]1(C)C[C@@H](OC(=O)CN(CC)Cc2cccc(Cl)c2)[C@]2(C)[C@H](C)CC[C@]3(CCC(=O)[C@H]32)[C@@H](C)[C@@H]1O`: the inhibition at 20 µM in experiment [1] amounted to 99%.
As to `C=C[C@]1(C)C[C@@H](OC(=O)CN(Cc2ccccc2)Cc2ccc(Oc3ccccc3)cc2)[C@]2(C)[C@H](C)CC[C@]3(CCC(=O)[C@H]32)[C@@H](C)[C@@H]1O`, the inhibition at 20 µM in experiment [1] was 101%.

The values above are taken from ChEMBL document CHEMBL3399970, “Synthesis of novel pleuromutilin derivatives. Part 1: preliminary studies of antituberculosis activity” (2015).
